Laboratory results: ChEMBL document CHEMBL1128478, “Structure-activity relationships of the potent combined endothelin-A/endothelin-B receptor antagonist Ac-DDip16-Leu-Asp-Ile-Ile-Trp21: development of endothelin-B receptor selective antagonists” (J Med Chem, 1995)
Numbered stars: 1 amine (or outer) side, 2 acyl side, 3 side chain; on linkers, the order of the positions; unused ones are H or OH. Square brackets hold non-standard residues; d marks the D form. Peptide text beside a SMILES is read from it. dGly(5-dibenzosuberyl) = N[C@@H](C(=O)O)C1c2ccccc2CCc2ccccc21; X3 = O=C([C@@H](N[*:1])C(c1ccccc1)(c1ccccc1)c1ccccc1)[*:2]; X4 = Cc1c(C)c(C)c(C[C@@H](N[*:1])C(=O)[*:2])c(C)c1C; X2 = Cc1c(C)c(C)c(C[C@H](N[*:1])C(=O)[*:2])c(C)c1C; dDip = N[C@@H](C(=O)O)C(c1ccccc1)c1ccccc1; Dip = N[C@H](C(=O)O)C(c1ccccc1)c1ccccc1; 3Pal = N[C@@H](Cc1cccnc1)C(=O)O; Suc = O=C(CCC(=O)[*:2])[*:1]; Orn = NCCC[C@H](N)C(=O)O

Each molecule was assayed against T1, Endothelin receptor type B (Rattus norvegicus, UniProt P21451) (assay: Binding affinity against endothelin B receptor rat cerebellar membranes.).
T1 sequence (P21451 whole entry): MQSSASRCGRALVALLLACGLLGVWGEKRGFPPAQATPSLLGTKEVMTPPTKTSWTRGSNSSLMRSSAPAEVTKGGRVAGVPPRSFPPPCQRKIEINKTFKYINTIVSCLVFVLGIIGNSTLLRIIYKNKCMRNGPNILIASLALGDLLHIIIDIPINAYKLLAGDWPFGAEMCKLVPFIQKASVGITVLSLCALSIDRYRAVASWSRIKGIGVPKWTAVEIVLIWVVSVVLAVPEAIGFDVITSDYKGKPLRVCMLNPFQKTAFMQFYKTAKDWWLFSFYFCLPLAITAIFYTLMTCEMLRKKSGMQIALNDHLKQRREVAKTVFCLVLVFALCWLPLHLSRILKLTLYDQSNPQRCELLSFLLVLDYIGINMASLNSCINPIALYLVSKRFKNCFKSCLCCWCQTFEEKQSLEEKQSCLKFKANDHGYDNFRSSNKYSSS

Point of comparison: CC[C@H](C)[C@H](NC(=O)[C@H](CC(=O)O)NC(=O)[C@H](CC(C)C)NC(=O)[C@@H](NC(C)=O)C(c1ccccc1)c1ccccc1)C(=O)N[C@@H](CCCCN)C(=O)N[C@@H](Cc1c[nH]c2ccccc12)C(=O)O (Ac-[Dip]LDIKW-OH), IC50 4.7 µM. Against it:
- CC[C@H](C)[C@H](NC(=O)[C@H](CC(=O)O)NC(=O)[C@H](CC(C)C)NC(=O)[C@@H](NC(C)=O)C(c1ccccc1)c1ccccc1)C(=O)N[C@@H](CCC(=O)O)C(=O)N[C@@H](Cc1c[nH]c2ccccc12)C(=O)O (Ac-[Dip]LDIEW-OH) — higher, > 10 µM
- CC[C@H](C)[C@H](NC(=O)[C@H](CC(=O)O)NC(=O)[C@H](CC(C)C)NC(=O)[C@@H](NC(C)=O)C(c1ccccc1)c1ccccc1)C(=O)N[C@H](C(=O)N[C@@H](Cc1ccc(O)cc1)C(=O)O)[C@@H](C)CC (Ac-[Dip]LDIIY-OH) — within 1.5-fold, 6.1 µM
- CC[C@H](C)[C@H](NC(=O)[C@H](CC(=O)O)NC(=O)[C@H](CC(C)C)NC(=O)[C@@H](NC(C)=O)C(c1ccccc1)c1ccccc1)C(=O)N[C@H](C(=O)N[C@@H](Cc1cccnc1)C(=O)O)[C@@H](C)CC (Ac-[Dip]LDII[3Pal]-OH) — higher, > 10 µM
- CC[C@H](C)[C@H](NC(=O)[C@H](CC(=O)O)NC(=O)[C@H](CC(C)C)NC(=O)[C@@H](NC(C)=O)C(c1ccccc1)c1ccccc1)C(=O)N[C@H](C(=O)N[C@@H](Cc1c[nH]c2ccccc12)C(=O)O)C(C)C (Ac-[Dip]LDIVW-OH) — 3.4-fold lower, 1.4 µM
- CC[C@H](C)[C@H](NC(=O)[C@@H](NC(=O)[C@H](CC(=O)O)NC(=O)[C@H](CC(C)C)NC(=O)[C@@H](NC(C)=O)C(c1ccccc1)c1ccccc1)C(C)C)C(=O)N[C@@H](Cc1c[nH]c2ccccc12)C(=O)O (Ac-[Dip]LDVIW-OH) — 92-fold lower, 0.051 µM
- CC[C@H](C)[C@H](NC(=O)[C@H](Cc1ccc(O)cc1)NC(=O)[C@H](CC(=O)O)NC(=O)[C@H](CC(C)C)NC(=O)[C@@H](NC(C)=O)C(c1ccccc1)c1ccccc1)C(=O)N[C@@H](Cc1c[nH]c2ccccc12)C(=O)O (Ac-[Dip]LDYIW-OH) — 390-fold lower, 0.012 µM
- CC[C@H](C)[C@H](NC(=O)[C@H](CC(=O)O)NC(=O)[C@H](CCCN)NC(=O)[C@@H](NC(C)=O)C(c1ccccc1)c1ccccc1)C(=O)N[C@H](C(=O)N[C@@H](Cc1c[nH]c2ccccc12)C(=O)O)[C@@H](C)CC (Ac-[Dip][Orn]DIIW-OH) — 31-fold lower, 0.15 µM
- CC[C@H](C)[C@H](NC(=O)[C@H](CC(=O)O)NC(=O)[C@H](CC(C)C)NC(=O)[C@@H](NC(C)=O)C(c1ccccc1)(c1ccccc1)c1ccccc1)C(=O)N[C@H](C(=O)N[C@@H](Cc1c[nH]c2ccccc12)C(=O)O)[C@@H](C)CC (Ac-[X3]LDIIW-OH) — within 1.5-fold, 5.9 µM
- CC[C@H](C)[C@H](NC(=O)[C@H](CC(=O)O)NC(=O)[C@H](CC(C)C)NC(=O)[C@@H](Cc1c(C)c(C)c(C)c(C)c1C)NC(C)=O)C(=O)N[C@H](C(=O)N[C@@H](Cc1c[nH]c2ccccc12)C(=O)O)[C@@H](C)CC (Ac-[X4]LDIIW-OH) — 2-fold lower, 2.4 µM
- CC[C@H](C)[C@H](NC(=O)[C@H](CCC(=O)O)NC(=O)[C@H](CC(=O)O)NC(=O)[C@H](CC(C)C)NC(=O)[C@H](NC(C)=O)C(c1ccccc1)c1ccccc1)C(=O)N[C@@H](Cc1c[nH]c2ccccc12)C(=O)O (Ac-[dDip]LDEIW-OH) — within 1.5-fold, 6 µM
- CC[C@H](C)[C@H](NC(=O)[C@H](CC(=O)O)NC(=O)[C@H](CC(C)C)NC(=O)[C@H](NC(C)=O)C1c2ccccc2CCc2ccccc21)C(=O)N[C@H](C(=O)N[C@@H](Cc1c[nH]c2ccccc12)C(=O)O)[C@@H](C)CC (Ac-[dGly(5-dibenzosuberyl)]LDIIW-OH) — 310-fold lower, 0.015 µM
- CC[C@H](C)[C@H](NC(=O)[C@H](CC(=O)O)NC(=O)[C@H](CC(C)C)NC(=O)[C@@H](N)Cc1c(C)c(C)c(C)c(C)c1C)C(=O)N[C@H](C(=O)N[C@@H](Cc1c[nH]c2ccccc12)C(=O)O)[C@@H](C)CC (H-[X2]LDIIW-OH) — higher, > 10 µM
- CC[C@H](C)[C@H](NC(=O)[C@H](CC(=O)O)NC(=O)[C@H](CC(C)C)NC(=O)[C@@H](N)C(c1ccccc1)(c1ccccc1)c1ccccc1)C(=O)N[C@H](C(=O)N[C@@H](Cc1c[nH]c2ccccc12)C(=O)O)[C@@H](C)CC (H-[X3]LDIIW-OH) — 2.1-fold higher, 10 µM
- CC[C@H](C)[C@H](NC(=O)[C@H](CC(=O)O)NC(=O)[C@H](CC(C)C)NC(=O)[C@@H](NC(=O)CCC(=O)O)C(c1ccccc1)c1ccccc1)C(=O)N[C@H](C(=O)N[C@@H](Cc1c[nH]c2ccccc12)C(=O)O)[C@@H](C)CC (Suc-[Dip]LDIIW-OH) — higher, > 10 µM
- Ac-FFDIIW-OH — 240-fold lower, 0.02 µM

These molecules were tested against T1, Endothelin receptor type B (assay: Inhibition of SRTX-6c stimulated arachidonic acid release in CHO cells expressing rat ET- B receptors).

Molecule CC[C@H](C)[C@H](NC(=O)[C@H](CC(=O)O)NC(=O)[C@H](CC(C)C)NC(=O)[C@H](N)C(c1ccccc1)c1ccccc1)C(=O)N[C@H](C(=O)N[C@@H](Cc1c[nH]c2ccccc12)C(=O)O)[C@@H](C)CC (H-[dDip]LDIIW-OH) has an IC50 of 9.2 µM.
